From article PMC5320518, “Novel Liver-targeted conjugates of Glycogen Phosphorylase Inhibitor PSN-357 for the Treatment of Diabetes: Design, Synthesis, Pharmacokinetic and Pharmacological Evaluations” (Scientific Reports, 2017)
Like-named read-outs stand apart in the source and are kept apart here.

Columns and labels:
[1] = target: T1, rabbit muscle GPa (RMGPa) (Oryctolagus cuniculus, UniProt P00489); experiment: RMGPa inhibition assay (phosphate release from glucose-1-phosphate); assay type: biochemical; conditions: mean ± S.D. of three determinations; NI means no inhibition
T1 sequence (P00489 2-843 limits assumed): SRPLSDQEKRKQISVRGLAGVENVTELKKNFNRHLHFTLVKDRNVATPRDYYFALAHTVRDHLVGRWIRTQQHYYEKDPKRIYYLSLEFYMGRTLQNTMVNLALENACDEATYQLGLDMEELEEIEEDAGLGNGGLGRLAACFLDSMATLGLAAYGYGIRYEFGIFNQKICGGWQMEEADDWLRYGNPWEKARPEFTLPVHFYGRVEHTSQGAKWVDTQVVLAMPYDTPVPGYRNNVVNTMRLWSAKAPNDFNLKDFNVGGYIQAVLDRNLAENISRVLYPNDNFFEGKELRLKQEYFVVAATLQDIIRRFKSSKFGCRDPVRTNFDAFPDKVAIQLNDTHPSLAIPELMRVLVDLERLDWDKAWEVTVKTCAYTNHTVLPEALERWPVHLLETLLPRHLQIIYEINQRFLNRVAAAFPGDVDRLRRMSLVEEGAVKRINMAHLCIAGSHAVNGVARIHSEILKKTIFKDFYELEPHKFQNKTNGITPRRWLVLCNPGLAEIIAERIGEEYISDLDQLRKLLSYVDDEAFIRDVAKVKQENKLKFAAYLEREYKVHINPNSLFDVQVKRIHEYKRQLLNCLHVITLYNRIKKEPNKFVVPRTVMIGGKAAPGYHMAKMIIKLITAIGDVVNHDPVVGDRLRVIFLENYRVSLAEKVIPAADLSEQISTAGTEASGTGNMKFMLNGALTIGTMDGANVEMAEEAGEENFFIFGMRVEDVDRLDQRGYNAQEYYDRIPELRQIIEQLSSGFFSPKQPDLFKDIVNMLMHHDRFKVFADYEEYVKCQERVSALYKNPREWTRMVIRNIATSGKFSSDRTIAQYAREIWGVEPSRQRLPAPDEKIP
Method: All the compounds were evaluated for their inhibitory activity against rabbit muscle GPa (RMGPa). The activity of RMGPa was measured through detecting the release of phosphate from glucose-1-phosphate in the direction of glycogen synthesis. CP-91149, a well-known allosteric GP inhibitor, which shares the same binding site with PSN-357, was used as the positive control and the results are summarized in Table 1[21]. […] This remarkable loss of activity was probably due to the direct steric interference by such bulky substituent of cholic acid group. […] The results is consistent with the SARs of PSN-357 that the hydroxyl of piperidine is not an essential group for the GP inhibitory activity that could be modified slightly.
The inhibitory activity of the test compounds against rabbit muscle glycogen phosphorylase a (GPa) was monitored using microplate reader (BIO-RAD) based on the published method. In brief, GPa activity was measured in the direction of glycogen synthesis by the release of phosphate from glucose-1-phosphate. Each test compound was dissolved in DMSO and diluted at different concentrations for IC50 determination. The enzyme was added into 100 μL of buffer containing 50 mM Hepes (pH = 7.2), 100 mM KCl, 2.5 mM MgCl2, 0.5 mM glucose-1-phosphate, 1 mg/mL glycogen and the test compound in 96-well microplates (Costar). After the addition of 150 μL of 1 M HCl containing 10 mg/mL ammonium molybdate and 0.38 mg/mL malachite green, reactions were run at 22 °C for 25 min, and then the phosphate absorbance was measured at 655 nm. The IC50 values were estimated by fitting the inhibition data to a dose-dependent curve using a logistic derivative equation.

[2] = test system: HepG2 cells; experiment: Glycogenolysis inhibition in HepG2 cells; assay type: cell-based, human; conditions: HepG2 cells, 60-min incubation with 0.3 nM glucagon, mean ± S.D. of three, NI means no inhibition, read-out: IC50 (glycogenolysis inhibition, HepG2 cells)
Text: To evaluate the effects of all compounds in cells, the glycogenolysis assays were established in both rat and human liver cells based on the published method. […] The inhibitory activities of the derivatives of PSN-357 (e.g. 25–28) were also explored. It is not surprising that the derivatives still retained micromolar inhibitory activities. Introduction of steric bulks to the hydroxyl group (e.g. 33, 40, 42, 48) led to a complete loss of activity. Data analysis indicated no clear SAR for the substitutents in the cell-based assays.
The inhibition of hepatic glycogenolysis was monitored by the measurement of liver glycogen, which was done quantitatively by the anthrone reagent (Sigma) colorimetric method based on the published method. Isolated rat hepatocytes or HepG2 cells (Sigma) were treated with the test compound or DMSO solvent (final concentration, 0.10%), followed by 60-min incubation with 0.3 nM glucagon (GGN). Assays were terminated by centrifugation, and cells were digested with 30% KOH followed by glycogen determination. The IC50 values were estimated by fitting the inhibition data to a dose-dependent curve using a logistic derivative equation.

[3] = Stability in mouse plasma; assay type: in vitro ADME; conditions: 2 μM, 37 °C, 120-min test
Method: Frozen plasma from male C57 BL/6 mice was incubated for 5 min at 37 °C before the addition of the test compound. Then prepared 2 μM incubation sample, and aliquots of the incubation mixtures (100 μL) were taken at predetermined time points (10, 30, 60, 120 min) at 37 °C. After incubation, the mixtures was added 400 μL of 50% ACN/50% MeOH containing internal standard (IS, 200 ng/mL Tolbutamide and 20 ng/mL Buspirone) to each sample tube and then centrifuged at 13000 rpm for 8 min. Blank incubations in the absence of the test compound were also performed. The analyses of test compounds were performed by LC-MS/MS analysis.

[4] = Stability in mouse liver microsomes (MLM); assay type: in vitro ADME; conditions: for CLint scaled at 10 μM / half-life at 10 μM / microsomal CLint at 10 μM: C57BL/6, pH 7.4, n = 3
Method: Additionally, the compounds’ stability in microsome were evaluated by measuring the rate of compounds consumpation in MLM and the results are shown in Table 3.
The microsomal pellet was suspended in potassium phosphate buffer (100 mM, pH 7.4), 10 μM test compound or positive control (diclofenac) was added. Liver microsomes from C57BL/6 mice (BD Gentest) were pooled. The mixture of microsome solution and compound was incubated at 37 °C for about 10 min in the presence of a NADPH-regenerating system, consisting of 0.02 M DL-isocitric acid (trisodium salt), 0.1 mg/mL isocitrate dehydrogenase and 1 mM NADPH. The addition of ice-cold CH3CN (including 100 ng/mL tolbutamide as internal standard) terminated the reaction. The mixture was vortexed for approx (30 s), centrifuged (20 min, 4000 rpm) and the supernatant was collected and analysed by LC-MS/MS method.

Compound	IC50 [1]	IC50 ([2]; Homo sapiens, HepG2, 1 h)	stability in mouse plasma (in words) [3]	metabolic stability in MLM (in words) [4]	CLint scaled at 10 μM [4]	half-life at 10 μM [4]	microsomal CLint at 10 μM [4]	IC50 [2]	degradation in mouse plasma [3]
O=C(N[C@@H](Cc1ccc(F)cc1)C(=O)N1CCC(O)CC1)c1cc2cc(Cl)ncc2[nH]1 [PSN-357]	0.42 ± 0.01 µM	3.1 ± 0.37 µM	relatively stable	good metabolic stability	< 38 mL/min/kg	> 2.42 h	< 9.6 µL/min/mg	–	–
C[C@H](CCC(=O)N[C@@H](CC(=O)O)C(=O)OC1CCN(C(=O)[C@H](Cc2ccc(F)cc2)NC(=O)c2cc3cc(Cl)ncc3[nH]2)CC1)[C@H]1CC[C@H]2[C@@H]3[C@H](O)C[C@@H]4C[C@H](O)CC[C@]4(C)[C@H]3C[C@H](O)[C@]12C [Conjugate 6]	31.2 ± 11.1 µM	6.1 µM	–	considerable metabolic stability	64.9 mL/min/kg	1.41 h	16.4 µL/min/mg	6.12 ± 1.38 µM	~12%
